Data taken from patent publication US20230058623A1, “NOVEL HETEROARYL-TRIAZOLE COMPOUNDS AS PESTICIDES” (Bayer Aktiengesellschaft, priority 2019, published 2023).

How the values were obtained:
Type in all cases: in vivo
[1] = tested on: larvae of the southern green stink bug (Nezara viridula); experiment: Nezara viridula spray test; details: 96 h, application rate 100 g/ha, after 4 days, barley plants
Method in brief: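 Barley plants sprayed with the active compound in emulsifier-containing water, then infested with stink bug larvae. Mortality scored in % after 4 days, with 100% meaning all insects killed.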

[2] = tested on: adult engorged female ticks (Rhipicephalus microplus); experiment: Rhipicephalus (Boophilus) microplus injection test; details: 168 h, application rate 4 μg/tick, egg deposition after 7 days, read-out: activity (efficacy: infertile eggs)
Method in brief: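 Abdominal injection, 1 μL compound/DMSO, n=5 engorged adult females; climate-chamber incubation. Readout d7: fertile egg laying; doubtful eggs held to hatch (~42 d). % efficacy = infertile eggs (100% all infertile).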

[3] = tested on: Rhipicephalus (Boophilus) microplus larvae (strain Parkhurst, resistant against synthetic pyrethroids); experiment: Rhipicephalus (Boophilus) microplus in-vitro contact test, larval cattle tick; details: after 48 hours, read-out: activity (efficacy: larvae dead or moribund); for pest or weed control at 1 µg/cm2, 100 g/ha: application rate 1 μg/cm^2 (=100 g/ha); for pest or weed control at 5 µg/cm2, 500 g/ha: application rate 5 μg/cm^2 (=500 g/ha)
Method in brief: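 Pyrethroid-resistant Parkhurst larvae, 20–50 per tube, were kept 48 h at 27 °C and 85% relative humidity in glass tubes whose inner walls carried a dried acetone film of compound (900 ppm giving 5 μg/cm^2). Dead or moribund larvae, judged by loss of negative geotactic behavior, set percent efficacy.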

[4] = tested on: adult unfed cat fleas (Ctenocephalides felis); experiment: Ctenocephalides felis oral test; details: 48 h, read-out: activity (mortality)
Protocol: Ctenocephalides felis—Oral Test
Solvent: dimethyl sulfoxide
To produce a suitable preparation of active compound, 10 mg of active compound are dissolved in 0.5 mL solvent, and the concentrate is diluted with citrated cattle blood to the desired concentration.
Approximately 20 adult unfed cat fleas (Ctenocephalides felis) are placed in a flea chamber whose top and bottom is covered with gauze. A chamber whose bottom is sealed with parafilm, is filled with the blood-compound solution and placed on top of the flea chamber, so that the fleas can suck the blood. The blood chamber is heated to 37° C. whereas the flea chamber is kept at room temperature.
After 2 days mortality in % is determined. 100% means all the fleas have been killed; 0% means none of the fleas have been killed.

[5] = tested on: adult brown dog ticks (Rhipicephalus sanguineus); experiment: Rhipicephalus sanguineus in-vitro contact test, adult brown dog ticks; details: application rate 5 μg/cm^2 (=500 g/ha), after 48 hours, read-out: activity (efficacy: ticks dead or moribund)
Method in brief: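 Read-out: % efficacy as dead or moribund ticks, judged 48 h after exposure by failure to climb away from a 45-50° C heating plate within 5 min. Tubes were coated with acetone solution (900 ppm = 5 μg/cm^2 surface dose) and held 5-10 adults each at room temperature.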

[6] = tested on: fall armyworm larvae (Spodoptera frugiperda); experiment: Spodoptera frugiperda spray test; details: 168 h, application rate 100 g/ha, after 7 days, maize leaf sections
Method in brief: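 Read-out: % larval mortality at day 7, where 100% means all killed and 0% none killed. Compound diluted in water with 1000 ppm emulsifier, sprayed onto Zea mays leaf sections; dried sections then infested with S. frugiperda larvae.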

[7] = tested on: brown planthopper (Nilaparvata lugens); experiment: Nilaparvata lugens spray test; details: 96 h, after 4 days, rice plants; for mortality at 500 g/ha: application rate 500 g/ha
Protocol: Nilaparvata lugens—Spray Test
To produce a suitable preparation of active compound, 1 part by weight of active compound is mixed with the stated amount of solvents and is diluted with water, containing an emulsifier concentration of 1000 ppm, to the desired concentration. Further test concentrations are prepared by dilution with emulsifier containing water.
Rice plants (Oryza sativa) are sprayed with a preparation of the active ingredient of the desired concentration and the plants are infested with the brown planthopper (Nilaparvata lugens).
After 4 days mortality in % is determined. 100% means all planthoppers have been killed and 0% means none of the planthoppers have been killed.

[8] = tested on: larvae of the banded cucumber beetle (Diabrotica balteata); experiment: Diabrotica balteata spray test; details: 168 h, application rate 100 g/ha (=32 μg/well), after 7 days, wheat seeds, read-out: activity (efficacy: seedlings grown)
Method in brief: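 Efficacy (%) read 7 days after infesting treated seedlings with 10-20 banded cucumber beetle larvae, 100% meaning growth as in uninfected untreated control and 0% no growth. Test solutions in water containing 1000 ppm emulsifier were sprayed onto wheat seeds germinated for 1 day on agar.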

[9] = tested on: green peach aphid (Myzus persicae); experiment: Myzus persicae oral test; details: 120 h, read-out: activity (mortality)
Method in brief: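 Aphids of mixed population ingest the compound preparation by sucking through a parafilm sheet stretched over wells holding test solution plus IPL41 insect medium (33%+15% sugar). Kill rate in percent is determined five days later.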

[10] = tested on: green peach aphid (Myzus persicae); experiment: Myzus persicae spray test; details: foliar, 120 h, application rate 100 g/ha, after 5 days, Chinese cabbage leaf disks, read-out: activity (mortality)
Method in brief: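 Percent kill was recorded 5 days after spraying. Test solutions, prepared with solvent and diluted in 1000 ppm emulsifier water, were applied to Brassica pekinensis leaf disks carrying mixed-instar green peach aphids.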

[11] = tested on: adult cat fleas (Ctenocephalides felis); experiment: Ctenocephalides felis in-vitro contact test, adult cat flea; details: application rate 5 μg/cm^2 (=500 g/ha), after 48 hours, read-out: activity (efficacy: fleas dead or moribund)
Method in brief: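 After 48 h of room-temperature exposure in tubes whose walls carried dried compound residue (5 μg/cm^2, from 900 ppm acetone solution), adult cat fleas (5-10 per tube) were heat-challenged at 45-50° C up to 5 min. Fleas unable to climb away were counted dead or moribund, expressed as % efficacy.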

[12] = tested on: adult mosquitoes Aedes aegypti strain MONHEIM; experiment: Aedes aegypti test (AEDSAE surface treatment & contact assay); details: surface concentration 20 mg/m^2, exposure 30 minutes, 24 hours after contact, read-out: efficacy (mortality)
Protocol: Aedes aegypti Test (AEDSAE Surface Treatment & Contact Assay)
Solvent: Aceton+2000 ppm rapeseed oil methyl ester (RME)
In order to produce a sufficient, active ingredient containing solution it is necessary to solve the test compound in the solvent-mix (acetone at 2 mg/ml/RME 2000 ppm). This solution is pipetted onto a glazed tile and after evaporation of the acetone, adult mosquitoes of the species Aedes aegypti strain MONHEIM are placed onto the dried surface. The exposure time is 30 minutes.
Mortality in percent (%) is determined 24 hours after contact of the insects to the treated surface. 100% mortality means that all tested insects are dead, whereas 0% means that no insect died.

What does the source list for `C[C@H](NC(=O)c1cc(Cl)cc(C(F)(F)F)c1)c1ncnn1-c1ccc(C(=O)N2CCOC[C@H]2C)cn1` [Example I-33]?
mortality at 100 g/ha [1]: 90%; pest or weed control at 0.004 mg [2]: 100%; pest or weed control at 1 µg/cm2, 100 g/ha [3]: 100%; pest or weed control at 5 µg/cm2, 500 g/ha [3]: 100%; mortality at 100 ppm [4]: 100%; pest or weed control at 5 µg/cm2, 500 g/ha [5]: 100%; mortality at 100 g/ha [6]: 100%

Which mortality at 500 g/ha [7] does the source give for `C[C@@H]1CN(C(=O)c2cnc(-n3ncnc3[C@H](C)NC(=O)c3cc(OC(F)(F)F)cc(S(C)(=O)=O)c3)nc2)C[C@H](C)O1` [Example I-145] here?
The mortality at 500 g/ha was 100%.

And the pest or weed control at 32 µg/disc, 100 g/ha [8]?
The pest or weed control at 32 µg/disc, 100 g/ha was 100%.

With `C[C@H](NC(=O)c1cc(Cl)cc(C(F)(F)F)c1)c1ncnn1-c1ccc(N2CCCC2=O)cn1` [Example I-54] as the compound, how does the mortality at 4 ppm [9] read?
Its mortality at 4 ppm is 100%.

And the mortality at 100 g/ha ([7]; application rate 100 g/ha)?
Its mortality at 100 g/ha is 100%.

Which results are given for `C[C@H](NC(=O)c1cc(C(F)(F)F)cc(C(F)(F)F)c1)c1ncnn1-c1ncc(C(=O)N2CCCC2)cn1` [Example I-147]?
mortality at 500 g/ha [7]: 90%; pest or weed control at 32 µg/disc, 100 g/ha [8]: 100%; mortality at 100 g/ha [10]: 100%; mortality at 100 g/ha [6]: 100%

What does the source list for `C[C@@H]1CN(C(=O)c2ccc(-n3ncnc3[C@H](C)NC(=O)c3cc(Cl)cc(C(F)(F)F)c3)nc2)CCO1` [Example I-32]?
mortality at 4 ppm [9]: 100%; pest or weed control at 0.004 mg [2]: 100%; pest or weed control at 1 µg/cm2, 100 g/ha [3]: 100%; pest or weed control at 5 µg/cm2, 500 g/ha [3]: 100%; pest or weed control at 5 µg/cm2 [11]: 100%; mortality at 100 ppm [4]: 90%; pest or weed control at 32 µg/disc, 100 g/ha [8]: 100%; mortality at 100 g/ha [10]: 100%; pest or weed control at 5 µg/cm2, 500 g/ha [5]: 100%; mortality at 100 g/ha [6]: 100%

What does the source list for `COC1CN(C(=O)c2ccc(-n3nc(C)nc3[C@H](C)NC(=O)c3cc(Cl)cc(C(F)(F)F)c3)nc2)C1` [Example I-24]?
mortality at 4 ppm [9]: 100%; pest or weed control at 0.004 mg [2]: 100%; pest or weed control at 1 µg/cm2, 100 g/ha [3]: 100%; pest or weed control at 5 µg/cm2, 500 g/ha [3]: 100%; pest or weed control at 5 µg/cm2 [11]: 90%; mortality at 100 ppm [4]: 80%; mortality at 20 mg/m2 [12]: 80 to 100%; mortality at 100 g/ha [10]: 100%; pest or weed control at 5 µg/cm2, 500 g/ha [5]: 100%; mortality at 100 g/ha [6]: 100%
